Source: article PMC9321722, “Tailored Pyridoxal Probes Unravel Novel Cofactor‐Dependent Targets and Antibiotic Hits in Critical Bacterial Pathogens” (Angewandte Chemie (International Ed. in English), 2022)

Key:
PA2683 [1] = target: T1, PA2683 (Pseudomonas aeruginosa, UniProt Q9I0F5); assay: acceleration of serine/threonine dehydratase activity of overexpressed enzyme; type: biochemical
T1 sequence (Q9I0F5 1-320): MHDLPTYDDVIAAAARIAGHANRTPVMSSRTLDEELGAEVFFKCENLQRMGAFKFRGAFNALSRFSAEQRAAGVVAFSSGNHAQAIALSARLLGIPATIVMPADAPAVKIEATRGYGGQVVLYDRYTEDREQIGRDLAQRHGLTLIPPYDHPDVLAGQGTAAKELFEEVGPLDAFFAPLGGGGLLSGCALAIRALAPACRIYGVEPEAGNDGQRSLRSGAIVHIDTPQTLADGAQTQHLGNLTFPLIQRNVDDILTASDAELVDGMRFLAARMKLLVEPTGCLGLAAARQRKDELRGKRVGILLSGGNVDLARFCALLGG

pdxK = target: T2, pdxK (Escherichia coli, UniProt P40191); assay: UV/Vis phosphorylation assay; type: biochemical
T2 construct: pyridoxal kinase used in UV/Vis phosphorylation assay

ydcR = ydcR (Escherichia coli, UniProt P77730); assay: intact protein MS of overexpressed protein; type: binding
[2] = target: T3, PA3798 (aminotransferase) (Pseudomonas aeruginosa, UniProt Q9HXJ9); assay: intact protein MS; UV/Vis of holo-enzyme; type: binding
T3 sequence (Q9HXJ9 1-382): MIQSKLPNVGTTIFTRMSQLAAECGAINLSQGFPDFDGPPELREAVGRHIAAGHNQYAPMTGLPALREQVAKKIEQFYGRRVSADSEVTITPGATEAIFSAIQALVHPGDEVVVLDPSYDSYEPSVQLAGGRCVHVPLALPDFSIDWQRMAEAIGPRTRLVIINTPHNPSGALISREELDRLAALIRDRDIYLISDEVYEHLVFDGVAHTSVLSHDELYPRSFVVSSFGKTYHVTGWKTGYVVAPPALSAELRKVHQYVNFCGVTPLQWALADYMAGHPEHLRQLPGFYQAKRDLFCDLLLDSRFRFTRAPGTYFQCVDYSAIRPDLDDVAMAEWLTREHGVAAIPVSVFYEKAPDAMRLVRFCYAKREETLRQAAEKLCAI

PA2683 [3] = target: T1, PA2683; assay: intact protein MS of overexpressed protein; type: binding
[4] = target: T4, PA3659 (aminotransferase) (Pseudomonas aeruginosa, UniProt Q9HXY0); assay: intact protein MS; UV/Vis of holo-enzyme; type: binding
T4 sequence (Q9HXY0 1-402): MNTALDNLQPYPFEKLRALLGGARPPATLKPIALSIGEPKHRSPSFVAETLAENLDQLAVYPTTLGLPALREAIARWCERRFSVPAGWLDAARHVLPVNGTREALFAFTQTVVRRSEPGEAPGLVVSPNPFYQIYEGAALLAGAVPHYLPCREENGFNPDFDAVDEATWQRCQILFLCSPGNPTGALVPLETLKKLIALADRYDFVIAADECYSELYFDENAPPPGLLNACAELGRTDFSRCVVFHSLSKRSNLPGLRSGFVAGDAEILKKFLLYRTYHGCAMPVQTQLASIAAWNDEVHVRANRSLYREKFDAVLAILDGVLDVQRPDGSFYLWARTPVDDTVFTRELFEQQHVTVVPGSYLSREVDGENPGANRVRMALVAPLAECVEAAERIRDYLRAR

SaPLK = target: T5, SaPLK (Staphylococcus aureus, UniProt Q5HI96); assay: UV/Vis phosphorylation assay; type: biochemical
T5 construct: gene pdxK; pyridoxal kinase used in UV/Vis phosphorylation assay
T5 sequence (Q5HI96 1-276): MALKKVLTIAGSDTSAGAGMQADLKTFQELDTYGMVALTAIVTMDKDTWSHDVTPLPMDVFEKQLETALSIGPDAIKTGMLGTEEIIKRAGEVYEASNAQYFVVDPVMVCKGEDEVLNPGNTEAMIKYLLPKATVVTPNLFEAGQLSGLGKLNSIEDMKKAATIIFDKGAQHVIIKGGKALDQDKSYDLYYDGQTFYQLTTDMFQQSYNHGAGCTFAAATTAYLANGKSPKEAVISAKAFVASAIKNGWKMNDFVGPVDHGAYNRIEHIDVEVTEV

PA2683 [5] = target: T1, PA2683; assay: coupled NADH assay and LC-MS/MS of products; type: biochemical
[6] = target: T6, A0A0H2XHJ5 (cysteine desulfurase, sufS) (Staphylococcus aureus, UniProt A0A0H2XHJ5); assay: LC-MS quantification of alanine formed from L-Cys by overexpressed enzyme; type: biochemical
T6 construct: with sufU

[7] = target: T7, Orn/Lys/Arg decarboxylase (A0A0H2XII6) (Staphylococcus aureus, UniProt A0A0H2XII6); assay: LC-MS/MS quantification of cadaverine formed by overexpressed enzyme; also competitive PL2 profiling in cells; type: biochemical
T7 construct: gene SAUSA300_0458
T7 sequence (A0A0H2XII6 entry or part of it): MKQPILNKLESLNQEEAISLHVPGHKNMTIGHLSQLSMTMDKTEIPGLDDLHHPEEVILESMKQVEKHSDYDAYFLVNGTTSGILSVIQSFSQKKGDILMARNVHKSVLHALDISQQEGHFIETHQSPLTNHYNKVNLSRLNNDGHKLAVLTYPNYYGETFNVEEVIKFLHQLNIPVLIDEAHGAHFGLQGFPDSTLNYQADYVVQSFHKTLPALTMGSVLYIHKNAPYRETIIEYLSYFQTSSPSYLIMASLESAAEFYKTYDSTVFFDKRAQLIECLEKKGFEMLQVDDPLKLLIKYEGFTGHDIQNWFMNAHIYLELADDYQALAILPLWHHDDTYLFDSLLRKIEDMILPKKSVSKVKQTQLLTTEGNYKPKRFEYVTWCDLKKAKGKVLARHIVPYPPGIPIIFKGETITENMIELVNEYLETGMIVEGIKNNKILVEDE

T2 sequence (P40191 whole entry): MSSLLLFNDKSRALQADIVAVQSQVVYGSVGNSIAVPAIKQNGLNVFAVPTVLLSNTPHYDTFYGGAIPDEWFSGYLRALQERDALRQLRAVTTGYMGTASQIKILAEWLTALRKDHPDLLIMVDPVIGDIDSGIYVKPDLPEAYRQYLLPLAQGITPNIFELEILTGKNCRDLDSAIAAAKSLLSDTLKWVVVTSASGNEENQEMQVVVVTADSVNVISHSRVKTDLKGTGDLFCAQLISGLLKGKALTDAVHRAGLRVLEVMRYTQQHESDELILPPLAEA
Sequence of ydcR (P77730 whole entry): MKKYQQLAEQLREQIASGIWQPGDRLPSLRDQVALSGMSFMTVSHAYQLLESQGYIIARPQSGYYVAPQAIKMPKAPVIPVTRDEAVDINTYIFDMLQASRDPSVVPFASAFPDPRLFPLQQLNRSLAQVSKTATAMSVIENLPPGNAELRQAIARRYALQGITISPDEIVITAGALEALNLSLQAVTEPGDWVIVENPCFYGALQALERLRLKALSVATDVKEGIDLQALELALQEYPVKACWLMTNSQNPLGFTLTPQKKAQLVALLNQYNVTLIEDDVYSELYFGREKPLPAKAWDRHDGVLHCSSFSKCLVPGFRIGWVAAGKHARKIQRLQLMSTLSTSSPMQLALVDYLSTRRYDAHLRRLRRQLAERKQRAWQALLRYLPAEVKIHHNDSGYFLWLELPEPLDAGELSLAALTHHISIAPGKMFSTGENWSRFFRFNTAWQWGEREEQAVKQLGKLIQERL
T6 sequence (A0A0H2XHJ5 entry or part of it): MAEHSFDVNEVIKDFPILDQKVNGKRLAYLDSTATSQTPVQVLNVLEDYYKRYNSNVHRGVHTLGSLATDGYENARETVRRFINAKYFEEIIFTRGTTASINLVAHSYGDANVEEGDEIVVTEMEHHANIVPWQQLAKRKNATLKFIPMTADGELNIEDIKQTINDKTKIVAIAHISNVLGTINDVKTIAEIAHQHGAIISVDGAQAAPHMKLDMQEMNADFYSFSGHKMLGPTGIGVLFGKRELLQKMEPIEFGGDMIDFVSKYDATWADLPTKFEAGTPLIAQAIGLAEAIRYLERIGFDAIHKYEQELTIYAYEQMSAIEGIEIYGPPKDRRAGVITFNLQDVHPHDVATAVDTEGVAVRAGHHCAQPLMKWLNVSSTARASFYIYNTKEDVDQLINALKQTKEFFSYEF
T6 sequence (A0A0H2XJC0 entry or part of it, further chain): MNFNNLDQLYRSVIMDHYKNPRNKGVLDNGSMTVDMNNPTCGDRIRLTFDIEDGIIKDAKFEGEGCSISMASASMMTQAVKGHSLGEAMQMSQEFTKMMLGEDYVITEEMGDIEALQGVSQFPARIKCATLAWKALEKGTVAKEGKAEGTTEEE

Nc1ncnc2c1ncn2[C@@H]1O[C@H](COP(=O)(O)O)[C@@H](O)[C@H]1O [adenosine monophosphate]
acceleration of serine/threonine dehydratase activity of overexpressed enzyme (PA2683 [1]): the catalysis was accelerated by adding adenosine monophosphate (AMP) and magnesium

C#CCCc1ncc(CO)c(C=O)c1O [PL2]
UV/Vis phosphorylation assay (pdxK): we observed phosphorylation of all probes except for PL11 and PL12

Cc1ncc(COP(=O)(O)O)c(C=O)c1O [pyridoxal phosphate]
intact protein MS of overexpressed protein (ydcR): PLP binding of all overexpressed enzymes was confirmed via intact protein MS (IP‐MS, Figure 4A)
intact protein MS; UV/Vis of holo-enzyme [2]: PLP binding of all overexpressed enzymes was confirmed via intact protein MS (IP‐MS, Figure 4A)
intact protein MS of overexpressed protein (PA2683 [3]): PLP binding of all overexpressed enzymes was confirmed via intact protein MS (IP‐MS, Figure 4A)
intact protein MS; UV/Vis of holo-enzyme [4]: PLP binding of all overexpressed enzymes was confirmed via intact protein MS (IP‐MS, Figure 4A)

C#Cc1nc(C)c(O)c(C=O)c1CO [PL10]
UV/Vis phosphorylation assay (SaPLK): we observed phosphorylation of all probes except for PL11 and PL12
UV/Vis phosphorylation assay (pdxK): we observed phosphorylation of all probes except for PL11 and PL12

N[C@@H](CO)C(=O)O [L-serine]
coupled NADH assay and LC-MS/MS of products (PA2683 [5]): The enzyme was overexpressed and indeed turnover of L‐serine was observed together with NADH consumption within a coupled assay

NNCCc1ccccc1 [phenelzine]
IC50 [6]: 14.7 ± 1.22 µM
IC50 [7]: 53.1 ± 1.05 µM
